Read-outs that look alike come from different tables or passages of the source.
Biological target: T1, PTP1B (Homo sapiens, UniProt P18031)
T1 sequence (P18031 1-435): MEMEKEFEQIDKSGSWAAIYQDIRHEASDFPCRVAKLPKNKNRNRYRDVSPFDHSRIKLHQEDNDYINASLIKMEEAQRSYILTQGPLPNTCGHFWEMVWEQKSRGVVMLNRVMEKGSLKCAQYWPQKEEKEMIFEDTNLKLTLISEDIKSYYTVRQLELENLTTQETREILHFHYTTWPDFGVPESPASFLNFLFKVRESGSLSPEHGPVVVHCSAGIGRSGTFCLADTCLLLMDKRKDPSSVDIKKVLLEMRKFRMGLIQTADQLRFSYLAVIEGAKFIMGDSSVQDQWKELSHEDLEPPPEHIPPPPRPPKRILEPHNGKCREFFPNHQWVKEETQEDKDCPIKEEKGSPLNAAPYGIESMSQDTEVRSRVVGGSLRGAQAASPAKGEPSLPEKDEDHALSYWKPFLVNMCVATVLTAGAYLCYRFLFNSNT
Assay: PTP1B inhibition assay (hydrolysis of p-nitrophenyl phosphate, 96-well plate)
Method: PTP1B activity was measured as the rate of hydrolysis of p-nitrophenyl phosphate (pNPP) in a 96-well microtiter plate format [13]. […] Each experiment was performed in triplicate, and IC50 data were derived from three independent experiments.

Row | Molecule | IC50 | IC50 (read-out: PTP1B inhibitory activity IC50, in vitro, pNPP substrate, triplicate, three independent experiments)
1 | 2-carboxymethyl-4-(3′-hydroxybutyl)furan [Compound 5] | – | > 1000 µM
2 | C[C@@H]1CCC(=O)C[C@H](O)[C@@H](O)CC(=O)O1 [Compound 2, Cepharosporolides C] | > 1000 µM | –

Further lines, with some results ahead:

Row | IC50 | Molecule | IC50 (read-out: PTP1B inhibitory activity IC50, in vitro, pNPP substrate, triplicate, three independent experiments)
3 | > 1000 µM | CC1CCC2(CC3OC(=O)CC3O2)O1 (centres unmarked) [Compound 4, Cepharosporolides F] | –
4 | > 1000 µM | C[C@@H]1CC[C@]2(C[C@@H]3OC(=O)C[C@@H]3O2)O1 [Compound 3, Cepharosporolides E] | –
5 | 3.24 ± 0.37 µM | CCC(C)CC(C)C=C(C)C=CC=CC=C(C)C(O)=C1C(=O)NC(Cc2ccc(O)cc2)C1=O (centres unmarked) [Compound 1, fumosorinone A] | –

— paper PMC6149825, “PTP1B Inhibitors from the Entomogenous Fungi Isaria fumosorosea” (Molecules : A Journal of Synthetic Chemistry and Natural …, 2017)
